In PMC7600309, “Completing the Enalaprilat Excretion Pathway—Renal Handling by the Proximal Tubule” (Pharmaceutics, 2020):
Counter-ions that a name gives are not always drawn. Non-standard residues stand in square brackets, D forms with d. Residues, ends and D or L forms follow the SMILES beside them. Sar = CNCC(=O)O

Columns and labels:
URAT1 = target: T1, URAT1 (Homo sapiens, UniProt Q96S37); assay: model substrate uptake vs control cells; format: cell-based
T1 construct: gene SLC22A12; NM_144585.3, baculovirus-transduced HEK293 cells
T1 sequence (Q96S37 1-553): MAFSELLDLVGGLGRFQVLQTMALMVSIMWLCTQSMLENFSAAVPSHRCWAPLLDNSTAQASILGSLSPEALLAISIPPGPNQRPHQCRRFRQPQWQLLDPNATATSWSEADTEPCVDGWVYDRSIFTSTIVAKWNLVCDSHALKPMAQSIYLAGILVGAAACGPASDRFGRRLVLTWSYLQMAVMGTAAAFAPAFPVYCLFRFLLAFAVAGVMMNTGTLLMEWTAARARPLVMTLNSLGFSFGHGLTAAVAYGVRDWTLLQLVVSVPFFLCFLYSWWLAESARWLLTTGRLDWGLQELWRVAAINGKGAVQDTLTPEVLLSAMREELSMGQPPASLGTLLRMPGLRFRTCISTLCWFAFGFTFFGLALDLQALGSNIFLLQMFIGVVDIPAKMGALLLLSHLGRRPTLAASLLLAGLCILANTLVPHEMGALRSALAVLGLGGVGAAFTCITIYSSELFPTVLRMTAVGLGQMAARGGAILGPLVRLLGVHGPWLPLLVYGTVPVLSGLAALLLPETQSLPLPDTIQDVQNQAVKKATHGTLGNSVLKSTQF

OAT3 [1] = target: T2, OAT3 (Homo sapiens, UniProt Q8TCC7); assay: radiolabelled model substrate uptake ([…]); format: cell-based
T2 construct: gene SLC22A8; NM_004254.3, baculovirus-transduced HEK293 cells
T2 sequence (Q8TCC7 1-542): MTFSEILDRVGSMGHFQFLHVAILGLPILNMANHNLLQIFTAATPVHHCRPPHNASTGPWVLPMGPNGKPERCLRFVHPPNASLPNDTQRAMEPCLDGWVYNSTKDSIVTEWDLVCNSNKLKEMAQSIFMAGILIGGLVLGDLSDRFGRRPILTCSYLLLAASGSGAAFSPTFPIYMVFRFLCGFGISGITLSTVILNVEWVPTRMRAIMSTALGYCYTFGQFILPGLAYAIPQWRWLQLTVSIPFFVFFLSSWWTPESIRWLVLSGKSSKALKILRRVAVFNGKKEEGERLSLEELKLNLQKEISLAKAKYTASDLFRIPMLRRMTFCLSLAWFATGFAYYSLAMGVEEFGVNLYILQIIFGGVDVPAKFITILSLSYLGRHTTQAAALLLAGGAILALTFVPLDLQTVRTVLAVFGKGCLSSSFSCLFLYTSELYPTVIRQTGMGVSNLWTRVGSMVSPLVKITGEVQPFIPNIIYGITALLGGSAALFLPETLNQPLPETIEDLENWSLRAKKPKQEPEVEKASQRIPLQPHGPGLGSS

PEPT1 = target: T3, PEPT1 (Homo sapiens, UniProt P46059); assay: radiolabelled model substrate uptake vs control cells; format: cell-based
T3 construct: gene SLC15A1; NM_005073.3, baculovirus-transduced HEK293 cells
T3 sequence (P46059 1-708): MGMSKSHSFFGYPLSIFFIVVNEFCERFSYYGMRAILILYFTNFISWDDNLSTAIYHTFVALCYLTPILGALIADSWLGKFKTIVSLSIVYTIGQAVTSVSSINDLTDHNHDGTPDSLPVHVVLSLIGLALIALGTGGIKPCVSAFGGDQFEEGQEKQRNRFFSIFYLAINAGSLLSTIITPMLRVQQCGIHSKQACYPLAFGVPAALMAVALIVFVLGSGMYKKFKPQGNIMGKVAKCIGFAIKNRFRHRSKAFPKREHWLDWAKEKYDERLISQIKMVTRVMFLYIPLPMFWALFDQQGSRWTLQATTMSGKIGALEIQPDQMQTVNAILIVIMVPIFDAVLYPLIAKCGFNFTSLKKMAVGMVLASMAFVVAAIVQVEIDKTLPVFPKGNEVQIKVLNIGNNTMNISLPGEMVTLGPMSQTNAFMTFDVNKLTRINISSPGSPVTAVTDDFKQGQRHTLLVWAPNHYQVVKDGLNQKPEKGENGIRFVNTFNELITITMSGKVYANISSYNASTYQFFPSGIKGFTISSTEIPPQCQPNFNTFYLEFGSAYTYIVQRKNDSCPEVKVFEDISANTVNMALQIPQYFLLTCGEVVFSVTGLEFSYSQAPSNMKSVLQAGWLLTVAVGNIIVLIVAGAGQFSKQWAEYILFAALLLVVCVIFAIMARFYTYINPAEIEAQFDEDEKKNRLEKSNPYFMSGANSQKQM

PEPT2 = target: T4, PEPT2 (Homo sapiens, UniProt Q16348); assay: as above; format: cell-based
T4 construct: gene SLC15A2; NM_021082.3, baculovirus-transduced HEK293 cells
T4 sequence (Q16348 1-729): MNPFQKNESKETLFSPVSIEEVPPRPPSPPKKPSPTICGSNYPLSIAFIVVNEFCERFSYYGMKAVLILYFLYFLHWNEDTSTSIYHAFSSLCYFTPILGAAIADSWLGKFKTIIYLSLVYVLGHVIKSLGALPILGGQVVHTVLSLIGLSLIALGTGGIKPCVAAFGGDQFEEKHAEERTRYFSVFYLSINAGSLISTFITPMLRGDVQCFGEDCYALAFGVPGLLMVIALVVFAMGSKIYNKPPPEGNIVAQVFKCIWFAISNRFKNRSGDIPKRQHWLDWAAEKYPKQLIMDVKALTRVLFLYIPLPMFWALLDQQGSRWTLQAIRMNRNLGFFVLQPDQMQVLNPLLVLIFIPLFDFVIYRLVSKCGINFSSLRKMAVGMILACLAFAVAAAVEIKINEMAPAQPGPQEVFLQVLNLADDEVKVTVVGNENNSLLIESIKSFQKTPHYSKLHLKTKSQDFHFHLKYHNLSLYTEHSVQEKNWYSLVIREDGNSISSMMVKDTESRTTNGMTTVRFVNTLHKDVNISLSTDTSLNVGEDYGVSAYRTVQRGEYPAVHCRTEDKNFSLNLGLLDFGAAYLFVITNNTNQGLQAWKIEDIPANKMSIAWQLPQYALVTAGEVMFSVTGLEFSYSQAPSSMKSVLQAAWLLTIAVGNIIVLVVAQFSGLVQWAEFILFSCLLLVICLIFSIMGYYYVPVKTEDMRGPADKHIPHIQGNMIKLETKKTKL

OCTN1 = target: T5, OCTN1 (Homo sapiens, UniProt Q9H015); assay: as above; format: cell-based
T5 construct: gene SLC22A4; NM_003059.2, baculovirus-transduced HEK293 cells
T5 sequence (Q9H015 1-551): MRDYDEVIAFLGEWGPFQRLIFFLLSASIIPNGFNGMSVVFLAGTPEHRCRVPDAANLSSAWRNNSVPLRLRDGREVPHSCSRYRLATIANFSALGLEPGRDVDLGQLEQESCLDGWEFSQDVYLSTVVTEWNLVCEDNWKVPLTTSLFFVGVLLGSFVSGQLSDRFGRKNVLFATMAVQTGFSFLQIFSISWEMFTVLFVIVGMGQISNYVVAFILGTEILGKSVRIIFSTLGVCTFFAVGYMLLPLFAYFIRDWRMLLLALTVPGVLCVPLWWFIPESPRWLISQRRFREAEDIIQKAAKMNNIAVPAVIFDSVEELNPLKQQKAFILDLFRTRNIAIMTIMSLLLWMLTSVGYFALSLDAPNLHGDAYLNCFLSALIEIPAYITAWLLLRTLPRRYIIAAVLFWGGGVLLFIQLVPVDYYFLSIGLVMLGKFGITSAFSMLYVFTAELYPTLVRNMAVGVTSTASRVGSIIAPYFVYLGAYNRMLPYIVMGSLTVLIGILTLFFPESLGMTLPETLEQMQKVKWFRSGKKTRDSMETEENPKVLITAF

OCTN2 = target: T6, OCTN2 (Homo sapiens, UniProt O76082); assay: as above; format: cell-based
T6 construct: gene SLC22A5; NM_003060.3, baculovirus-transduced HEK293 cells
T6 sequence (O76082 1-557): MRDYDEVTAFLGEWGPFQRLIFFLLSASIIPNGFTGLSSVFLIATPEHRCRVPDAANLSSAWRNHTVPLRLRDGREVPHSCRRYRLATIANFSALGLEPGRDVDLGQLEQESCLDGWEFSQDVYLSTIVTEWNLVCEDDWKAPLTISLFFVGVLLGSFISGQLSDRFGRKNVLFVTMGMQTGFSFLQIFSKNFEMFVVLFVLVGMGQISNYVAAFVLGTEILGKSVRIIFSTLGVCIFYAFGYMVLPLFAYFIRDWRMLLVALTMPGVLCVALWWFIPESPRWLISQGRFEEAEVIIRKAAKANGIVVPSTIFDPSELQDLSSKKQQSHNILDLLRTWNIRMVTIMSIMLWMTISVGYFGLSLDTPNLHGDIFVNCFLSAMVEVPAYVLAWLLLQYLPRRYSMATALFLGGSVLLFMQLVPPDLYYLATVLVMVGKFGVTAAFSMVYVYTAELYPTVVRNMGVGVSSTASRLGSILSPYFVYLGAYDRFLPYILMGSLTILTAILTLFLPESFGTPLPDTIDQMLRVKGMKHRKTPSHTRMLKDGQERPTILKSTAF

OAT2 = target: T7, OAT2 (Homo sapiens, UniProt Q9Y694); assay: as above; format: cell-based
T7 construct: gene SLC22A7; NM_006672, baculovirus-transduced HEK293 cells
T7 sequence (Q9Y694 1-548): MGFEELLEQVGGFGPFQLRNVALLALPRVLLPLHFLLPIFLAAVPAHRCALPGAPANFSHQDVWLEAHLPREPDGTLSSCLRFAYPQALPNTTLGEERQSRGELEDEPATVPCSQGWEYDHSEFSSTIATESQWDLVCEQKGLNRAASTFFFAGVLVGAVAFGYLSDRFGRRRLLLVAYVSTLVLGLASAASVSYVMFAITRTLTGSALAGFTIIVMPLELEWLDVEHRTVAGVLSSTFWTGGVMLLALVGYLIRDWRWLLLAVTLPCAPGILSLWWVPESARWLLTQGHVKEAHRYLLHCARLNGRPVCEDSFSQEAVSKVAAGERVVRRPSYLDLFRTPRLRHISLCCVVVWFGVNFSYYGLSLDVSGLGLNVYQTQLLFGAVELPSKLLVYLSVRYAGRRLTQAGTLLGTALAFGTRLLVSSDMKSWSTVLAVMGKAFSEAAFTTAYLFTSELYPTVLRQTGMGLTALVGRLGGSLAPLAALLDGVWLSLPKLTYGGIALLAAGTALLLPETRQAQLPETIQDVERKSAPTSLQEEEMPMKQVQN

OAT3 [2] = target: T2, OAT3; assay: inhibition of [3H]-E1S uptake (Ki); LC-MS/MS uptake in OAT3-HEK293 cells (Km […]); format: cell-based
OAT4 = target: T8, OAT4 (Homo sapiens, UniProt Q9NSA0)
T8 construct: gene SLC22A11
T8 sequence (Q9NSA0 whole entry): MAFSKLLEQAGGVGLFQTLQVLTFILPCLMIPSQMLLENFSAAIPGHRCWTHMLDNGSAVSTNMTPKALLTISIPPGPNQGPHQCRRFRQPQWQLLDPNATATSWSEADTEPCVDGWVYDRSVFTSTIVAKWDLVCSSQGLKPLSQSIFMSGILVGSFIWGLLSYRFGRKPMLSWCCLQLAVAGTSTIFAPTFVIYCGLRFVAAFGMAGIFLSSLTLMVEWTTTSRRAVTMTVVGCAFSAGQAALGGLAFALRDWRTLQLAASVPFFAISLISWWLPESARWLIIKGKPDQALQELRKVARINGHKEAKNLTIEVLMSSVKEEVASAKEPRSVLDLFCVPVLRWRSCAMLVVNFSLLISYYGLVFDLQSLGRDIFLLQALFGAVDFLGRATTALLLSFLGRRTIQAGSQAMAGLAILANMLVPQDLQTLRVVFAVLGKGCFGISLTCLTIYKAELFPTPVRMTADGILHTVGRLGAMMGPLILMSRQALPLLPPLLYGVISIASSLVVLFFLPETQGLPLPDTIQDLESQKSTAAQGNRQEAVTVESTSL

Compound: O=c1[nH]c(=O)c2[nH]c(=O)[nH]c2[nH]1 [Urate]
- model substrate uptake vs control cells (URAT1): OAT2, OAT4, PEPT1, PEPT2, URAT1, OCTN1, and OCTN2 all showed a significant transport ratio compared to control cells

Compound: C[C@]12CC[C@@H]3c4ccc(OS(=O)(=O)O)cc4CC[C@H]3[C@@H]1CCC2=O [[^3H]-Estrone sulfate]
- radiolabelled model substrate uptake (20 nM) (OAT3 [1]): Transport of [^3H]-E1S by OAT3 was determined in the presence of increasing enalaprilat concentrations

Compound: CN(CC(=O)O)C(=O)CN [[^3H]-Glycyl-sarcosine] (H-Gly-[Sar]-OH)
- radiolabelled model substrate uptake vs control cells (PEPT1): OAT2, OAT4, PEPT1, PEPT2, URAT1, OCTN1, and OCTN2 all showed a significant transport ratio compared to control cells
- radiolabelled model substrate uptake vs control cells (PEPT2): OAT2, OAT4, PEPT1, PEPT2, URAT1, OCTN1, and OCTN2 all showed a significant transport ratio compared to control cells

Compound: C[N+](C)(C)C[C@H](O)CC(=O)[O-] [[^14C]-Carnitine]
- radiolabelled model substrate uptake vs control cells (OCTN1): OAT2, OAT4, PEPT1, PEPT2, URAT1, OCTN1, and OCTN2 all showed a significant transport ratio compared to control cells
- radiolabelled model substrate uptake vs control cells (OCTN2): OAT2, OAT4, PEPT1, PEPT2, URAT1, OCTN1, and OCTN2 all showed a significant transport ratio compared to control cells

Compound: Nc1ccc(C(=O)NCC(=O)O)cc1 [[^14C]-para-aminohippuric acid]
- radiolabelled model substrate uptake vs control cells (OAT2): OAT2, OAT4, PEPT1, PEPT2, URAT1, OCTN1, and OCTN2 all showed a significant transport ratio compared to control cells

Compound: C[C@H](N[C@@H](CCc1ccccc1)C(=O)O)C(=O)N1CCC[C@H]1C(=O)O [enalaprilat]
- Ki (OAT3 [2]): 134 µM
- Km (OAT4): > 1000 µM
